The structures appear in SMILES notation. Activity calls are given as the source filed them. Some results are limits rather than exact numbers.

Data set [1] in a line: Half life in CD1 mouse at 30 mg/kg, po or at 3 mg/kg, iv measured after 8 hrs by LC-MS/MS analysis. The format is ADME, organism-based. The settings on record: in vivo.
Data set [2] can be described thus: AUC (0 to t) in CD-1 mouse at 30 mg/kg, po or at 3 mg/kg, iv measured after 8 hrs by LC-MS/MS analysis. The format is ADME, organism-based. More on the design: time 8 hrs, dose 30 mg/kg. As to conditions: in vivo.
Data set [3] can be described thus: Oral bioavailability in CD1 mouse at 30 mg/kg measured after 8 hrs by LC-MS/MS analysis. The settings on record: in vivo. The format is ADME, organism-based.
In data set [4] the target is T1, C-C chemokine receptor type 7 (Homo sapiens) (UniProt P32248).
T1 sequence (whole entry): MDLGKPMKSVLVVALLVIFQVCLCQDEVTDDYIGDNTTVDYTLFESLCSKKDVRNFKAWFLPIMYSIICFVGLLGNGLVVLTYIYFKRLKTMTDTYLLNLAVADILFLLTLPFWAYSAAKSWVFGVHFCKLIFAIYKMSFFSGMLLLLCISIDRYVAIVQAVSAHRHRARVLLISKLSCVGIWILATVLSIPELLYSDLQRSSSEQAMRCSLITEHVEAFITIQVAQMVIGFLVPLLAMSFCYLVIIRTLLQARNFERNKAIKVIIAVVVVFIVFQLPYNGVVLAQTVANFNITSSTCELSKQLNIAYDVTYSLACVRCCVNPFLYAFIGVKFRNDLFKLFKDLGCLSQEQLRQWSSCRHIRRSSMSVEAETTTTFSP
In words: Antagonist activity at CCR7 (unknown origin) assessed as inhibition of ligand-induced calcium flux measured upto 10 uM. The format is functional. As to conditions: dose microM <=10. In general terms: Calcium flux is commonly read through the fluorescence of an indicator in the cells.

Data set [5] can be described thus: Cmax in CD-1 mouse at 30 mg/kg, po or at 3 mg/kg, iv by UPLC-MS/MS analysis. Format: ADME, organism-based. More on the design: dose 30 mg/kg. As to conditions: in vivo.
Data set [6] can be described thus: C8h in CD-1 mouse at 30 mg/kg, po or at 3 mg/kg, iv measured up to 8 hrs by UPLC-MS/MS analysis. The settings on record: in vivo.
The next data set addresses Cytochrome P450 3A4 (Homo sapiens, UniProt P08684). Nature of the data set: Inhibition of CYP3A4 (unknown origin). The format is ADME.
The nature of data set [7]: Permeability of the compound at pH 7.4 incubated for 4 hrs by PAMPA. The settings on record: read-out: permeability. The format is ADME.
The target in data set [8] is C-C chemokine receptor type 5 (Homo sapiens) (UniProt P51681). In words: Antagonist activity at CCR5 (unknown origin) assessed as inhibition of ligand-induced calcium flux measured upto 10 uM. As to conditions: dose microM <=10. The format is functional.
Data set [9] addresses Voltage-gated inwardly rectifying potassium channel KCNH2 (Homo sapiens, UniProt Q12809). In words: Inhibition of human ERG by automated patch clamp method.
A short description of data set [10]: Metabolic stability in mouse liver microsomes assessed as parent compound remaining incubated for 10 mins in presence of NADPH. The format is ADME, Microsome. The settings on record: read-out: Stabilty.
The next data set in a line: cells. As to conditions: Homo sapiens, CCRF-CEM.
For data set [11], the target named is T2, C-C chemokine receptor type 6 (Homo sapiens) (UniProt P51684).
T2 sequence (whole entry): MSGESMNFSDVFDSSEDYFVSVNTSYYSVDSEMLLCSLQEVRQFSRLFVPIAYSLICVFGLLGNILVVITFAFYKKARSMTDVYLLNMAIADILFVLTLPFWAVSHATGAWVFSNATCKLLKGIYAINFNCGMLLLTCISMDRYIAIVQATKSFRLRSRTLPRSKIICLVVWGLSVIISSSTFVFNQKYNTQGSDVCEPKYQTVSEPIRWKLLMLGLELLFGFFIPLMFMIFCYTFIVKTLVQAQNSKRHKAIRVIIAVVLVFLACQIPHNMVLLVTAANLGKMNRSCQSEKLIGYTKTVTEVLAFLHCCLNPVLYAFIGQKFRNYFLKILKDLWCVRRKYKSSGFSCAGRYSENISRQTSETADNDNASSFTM
In words: Antagonist activity at CCR6 (unknown origin) assessed as inhibition of ligand-induced calcium flux measured upto 10 uM. The format is functional. The settings on record: dose microM <=10.

The target of data set [12] is T3, C-C chemokine receptor type 4 (Homo sapiens) (UniProt P51679).
T3 sequence (whole entry): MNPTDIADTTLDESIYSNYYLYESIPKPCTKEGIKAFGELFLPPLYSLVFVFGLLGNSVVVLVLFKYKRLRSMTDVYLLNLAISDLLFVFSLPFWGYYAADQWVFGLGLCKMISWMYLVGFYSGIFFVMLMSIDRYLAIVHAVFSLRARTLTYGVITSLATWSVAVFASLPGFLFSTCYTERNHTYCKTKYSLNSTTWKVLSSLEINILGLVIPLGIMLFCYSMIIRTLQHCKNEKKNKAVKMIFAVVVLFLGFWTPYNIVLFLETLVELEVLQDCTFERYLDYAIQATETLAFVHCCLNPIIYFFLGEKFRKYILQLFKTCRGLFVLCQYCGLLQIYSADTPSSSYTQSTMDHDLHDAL
In words: Antagonist activity at CCR4 (unknown origin) assessed as inhibition of ligand-induced calcium flux measured upto 10 uM. Format: functional. The settings on record: dose microM <=10.

The nature of data set [13]: Volume of distribution in CD-1 mouse at 30 mg/kg, po or at 3 mg/kg, iv by UPLC-MS/MS analysis. The format is ADME, organism-based. The settings on record: in vivo.
Data set [14] addresses T4, C-X-C chemokine receptor type 2 (Homo sapiens) (UniProt P25025).
T4 sequence (whole entry): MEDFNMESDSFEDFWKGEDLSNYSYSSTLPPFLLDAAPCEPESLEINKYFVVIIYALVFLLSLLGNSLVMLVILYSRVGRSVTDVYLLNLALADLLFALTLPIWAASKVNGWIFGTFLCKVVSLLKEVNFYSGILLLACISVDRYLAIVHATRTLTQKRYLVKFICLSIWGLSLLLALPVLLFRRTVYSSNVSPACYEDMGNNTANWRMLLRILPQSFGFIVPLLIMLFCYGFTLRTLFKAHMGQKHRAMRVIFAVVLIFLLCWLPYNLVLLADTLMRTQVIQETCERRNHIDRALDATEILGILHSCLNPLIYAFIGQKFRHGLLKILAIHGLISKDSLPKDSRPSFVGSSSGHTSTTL
In words: Antagonist activity at CXCR2 (unknown origin) assessed as inhibition of ligand-induced calcium flux measured upto 10 uM. As to conditions: dose microM <=10. Format: functional.

Data set [15] addresses T5, C-X-C chemokine receptor type 3 (Homo sapiens) (UniProt P49682).
T5 sequence (whole entry): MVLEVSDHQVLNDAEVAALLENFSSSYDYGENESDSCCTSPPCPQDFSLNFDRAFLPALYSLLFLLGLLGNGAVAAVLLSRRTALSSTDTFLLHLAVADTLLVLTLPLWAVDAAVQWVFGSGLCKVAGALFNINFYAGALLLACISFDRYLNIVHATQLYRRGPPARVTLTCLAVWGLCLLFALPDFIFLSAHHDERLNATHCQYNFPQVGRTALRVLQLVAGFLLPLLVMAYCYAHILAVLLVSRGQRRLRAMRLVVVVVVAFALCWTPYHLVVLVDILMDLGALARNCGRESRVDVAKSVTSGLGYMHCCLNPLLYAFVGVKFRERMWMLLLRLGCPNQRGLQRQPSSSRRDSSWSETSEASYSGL
In words: Antagonist activity at CXCR3 (unknown origin) assessed as inhibition of ligand-induced calcium flux measured upto 10 uM. As to conditions: dose microM <=10. Format: functional.

Data set [16] deals with C-X-C chemokine receptor type 4 (Homo sapiens, UniProt P61073). In words: Antagonist activity at CXCR4 receptor in human CCRF-CEM cells assessed as inhibition of SDF-1alpha-induced calcium release preincubated for 25 mins followed by SDF-1alpha addition and monitered for 90 sec. Format: functional, cell-based.
Data set [17] has as its target T6, C-X-C chemokine receptor type 1 (Homo sapiens) (UniProt P25024).
T6 sequence (whole entry): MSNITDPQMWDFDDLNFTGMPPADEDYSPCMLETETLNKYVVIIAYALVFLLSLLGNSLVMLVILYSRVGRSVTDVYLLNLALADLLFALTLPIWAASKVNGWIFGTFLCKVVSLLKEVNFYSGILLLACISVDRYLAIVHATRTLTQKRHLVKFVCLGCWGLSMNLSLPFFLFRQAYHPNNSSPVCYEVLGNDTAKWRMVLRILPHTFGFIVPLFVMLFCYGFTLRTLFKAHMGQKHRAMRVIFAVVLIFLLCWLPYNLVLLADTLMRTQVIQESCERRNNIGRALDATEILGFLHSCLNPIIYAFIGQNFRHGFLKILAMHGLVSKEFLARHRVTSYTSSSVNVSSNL
Nature of the data set: Antagonist activity at CXCR1 (unknown origin) assessed as inhibition of ligand-induced calcium flux measured upto 10 uM. The format is functional. As to conditions: dose microM <=10.

Data set [18] in a line: Metabolic stability in rat liver microsomes assessed as parent compound remaining incubated for 10 mins in presence of NADPH. Format: ADME, Microsome. The settings on record: read-out: Stabilty. (In general: Liver microsomes are a subcellular fraction often used to study metabolism.)
The nature of data set [19]: Clearance in CD-1 mouse at 30 mg/kg, po or at 3 mg/kg, iv by UPLC-MS/MS analysis. The format is ADME, organism-based. The settings on record: in vivo.
Data set [20] is described as follows: Metabolic stability in human liver microsomes assessed as parent compound remaining incubated for 10 mins in presence of NADPH. The format is ADME, Microsome. The settings on record: read-out: Stabilty.
The target in another data set is Cytochrome P450 2D6 (Homo sapiens, UniProt P10635). In words: Inhibition of human recombinant CYP2D6 expressed in insect cells using AMMC as substrate preincubated for 30 mins followed by NADPH regenerating system addition and measured after 45 mins by fluorescence based assay. Format: ADME.
Cytochrome P450 2D6, sequence (P10635 whole entry): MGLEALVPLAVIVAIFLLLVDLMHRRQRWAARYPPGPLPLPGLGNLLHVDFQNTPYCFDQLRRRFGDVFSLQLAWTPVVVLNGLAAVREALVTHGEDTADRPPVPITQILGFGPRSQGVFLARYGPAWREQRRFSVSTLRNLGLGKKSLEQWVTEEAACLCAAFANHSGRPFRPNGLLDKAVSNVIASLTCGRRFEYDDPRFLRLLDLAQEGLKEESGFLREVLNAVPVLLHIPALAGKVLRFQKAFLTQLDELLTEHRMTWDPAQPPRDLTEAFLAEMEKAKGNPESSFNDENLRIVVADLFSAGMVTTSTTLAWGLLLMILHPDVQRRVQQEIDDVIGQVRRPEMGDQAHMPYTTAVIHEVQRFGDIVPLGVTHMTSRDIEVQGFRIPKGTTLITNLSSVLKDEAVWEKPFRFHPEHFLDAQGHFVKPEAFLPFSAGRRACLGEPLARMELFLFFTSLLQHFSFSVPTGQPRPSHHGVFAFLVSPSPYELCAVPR

Cytochrome P450 3A4, sequence (P08684 whole entry): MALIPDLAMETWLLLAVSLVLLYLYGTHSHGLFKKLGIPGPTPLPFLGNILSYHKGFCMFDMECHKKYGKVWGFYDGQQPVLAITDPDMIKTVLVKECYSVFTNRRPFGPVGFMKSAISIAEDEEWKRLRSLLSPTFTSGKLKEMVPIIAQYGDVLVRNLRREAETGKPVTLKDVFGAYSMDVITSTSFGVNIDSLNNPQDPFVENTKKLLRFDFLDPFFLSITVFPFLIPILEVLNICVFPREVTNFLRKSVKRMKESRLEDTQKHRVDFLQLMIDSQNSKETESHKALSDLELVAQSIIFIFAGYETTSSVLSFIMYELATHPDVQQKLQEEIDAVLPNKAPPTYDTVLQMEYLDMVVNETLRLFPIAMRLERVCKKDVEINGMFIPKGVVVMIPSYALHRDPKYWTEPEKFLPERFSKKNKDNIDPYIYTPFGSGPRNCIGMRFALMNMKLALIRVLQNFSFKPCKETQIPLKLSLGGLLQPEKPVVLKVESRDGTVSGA
C-X-C chemokine receptor type 4, sequence (P61073 whole entry): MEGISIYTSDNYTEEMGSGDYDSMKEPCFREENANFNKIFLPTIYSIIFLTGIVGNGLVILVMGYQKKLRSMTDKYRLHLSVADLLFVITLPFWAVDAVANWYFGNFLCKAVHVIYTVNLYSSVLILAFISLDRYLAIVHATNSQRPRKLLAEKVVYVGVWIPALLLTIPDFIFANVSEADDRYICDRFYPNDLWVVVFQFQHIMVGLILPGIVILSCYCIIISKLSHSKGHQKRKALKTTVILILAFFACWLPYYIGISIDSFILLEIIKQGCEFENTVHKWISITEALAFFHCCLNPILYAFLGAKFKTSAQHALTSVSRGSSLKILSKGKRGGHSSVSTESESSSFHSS
Voltage-gated inwardly rectifying potassium channel KCNH2, sequence (Q12809 whole entry): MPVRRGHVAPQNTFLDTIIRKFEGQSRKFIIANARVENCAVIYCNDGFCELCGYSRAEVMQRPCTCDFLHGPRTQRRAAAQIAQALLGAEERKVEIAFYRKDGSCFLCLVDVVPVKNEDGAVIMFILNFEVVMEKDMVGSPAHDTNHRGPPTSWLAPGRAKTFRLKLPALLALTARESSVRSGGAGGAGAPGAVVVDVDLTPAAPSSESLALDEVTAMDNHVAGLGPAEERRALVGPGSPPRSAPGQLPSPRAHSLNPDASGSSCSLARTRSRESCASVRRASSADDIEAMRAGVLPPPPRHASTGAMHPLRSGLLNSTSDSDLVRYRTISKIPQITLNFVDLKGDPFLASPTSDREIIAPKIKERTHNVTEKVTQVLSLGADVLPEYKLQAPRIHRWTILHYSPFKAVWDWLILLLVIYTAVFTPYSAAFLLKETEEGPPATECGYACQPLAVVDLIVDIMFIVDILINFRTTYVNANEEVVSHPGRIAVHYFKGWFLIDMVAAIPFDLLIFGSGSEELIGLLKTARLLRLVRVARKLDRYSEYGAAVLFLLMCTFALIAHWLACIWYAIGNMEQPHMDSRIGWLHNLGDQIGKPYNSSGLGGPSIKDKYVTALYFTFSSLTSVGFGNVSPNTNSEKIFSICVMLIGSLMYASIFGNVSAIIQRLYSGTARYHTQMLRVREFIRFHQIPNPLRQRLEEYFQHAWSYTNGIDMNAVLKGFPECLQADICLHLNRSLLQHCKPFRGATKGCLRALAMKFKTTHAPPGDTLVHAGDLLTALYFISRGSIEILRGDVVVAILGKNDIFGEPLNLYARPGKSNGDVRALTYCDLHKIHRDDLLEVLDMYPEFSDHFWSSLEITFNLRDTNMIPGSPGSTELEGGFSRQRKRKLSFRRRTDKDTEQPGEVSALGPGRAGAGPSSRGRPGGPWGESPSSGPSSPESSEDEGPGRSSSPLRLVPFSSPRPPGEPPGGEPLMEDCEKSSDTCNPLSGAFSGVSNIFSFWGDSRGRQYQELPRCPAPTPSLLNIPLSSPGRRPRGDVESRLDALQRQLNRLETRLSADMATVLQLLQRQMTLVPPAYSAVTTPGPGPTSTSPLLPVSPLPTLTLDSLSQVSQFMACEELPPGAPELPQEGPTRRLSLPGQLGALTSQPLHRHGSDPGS
C-C chemokine receptor type 5 (Homo sapiens), sequence (P51681 whole entry, looked up): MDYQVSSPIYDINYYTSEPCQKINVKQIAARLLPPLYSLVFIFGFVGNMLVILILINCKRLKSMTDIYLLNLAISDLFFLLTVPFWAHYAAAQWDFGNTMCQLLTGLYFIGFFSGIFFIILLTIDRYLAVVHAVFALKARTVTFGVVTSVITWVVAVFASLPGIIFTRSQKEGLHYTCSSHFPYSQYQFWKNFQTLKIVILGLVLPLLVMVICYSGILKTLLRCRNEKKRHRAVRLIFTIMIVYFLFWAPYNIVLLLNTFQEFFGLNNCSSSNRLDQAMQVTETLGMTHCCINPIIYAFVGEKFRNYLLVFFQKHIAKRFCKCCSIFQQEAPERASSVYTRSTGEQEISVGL
Description for cells: Antagonist activity at muscarinic acetylcholine receptor in human CCRF-CEM cells assessed as inhibition of acetylcholine-induced calcium release preincubated for 25 mins followed by acetylcholine addition and monitered for 90 sec

By half-life is commonly meant the time needed for the level to fall by half in the phase considered. Read a low half-life as rapid decline. The term AUC(0-t) denotes the area under the concentration-time curve up to a stated or last time point. As usually defined, the bioavailability is dose-corrected exposure relative to a reference, in per cent. High values mean much systemic uptake, low ones little systemic uptake. A word on the Cmax: it is the maximum level reached in the sampled fluid or tissue. By IC50 is commonly meant the concentration that gives 50% inhibition. The molecule `CN1CCN(Nc2cccc3c2CC(CN(C)[C@H]2CCCc4cccnc42)NC3)CC1` (single isomer, unassigned) showed a half-life in [1] of 3.5 h. The AUC(0-t) at 8 h in [2] worked out at 4000 ng·h/mL. This molecule registered a bioavailability in data set [3] of 24%. For the same molecule, the result in data set [4], in data set [8], in data set [11], in data set [12], in [14] and in data set [15] was inactive. The outcome in data set [17] was inactive. This molecule had a Cmax in data set [5] of 791 ng/mL. The molecule also yielded a C8h at 8 h in data set [6] of 297 ng/mL. Further, the IC50 at Cytochrome P450 3A4 was more than 20 µM; in data set [9], 6.8 µM; in “cells” it was more than 16.7 µM; in [16], 0.0474 µM; on Cytochrome P450 2D6 it was more than 20 µM. The Papp at 4 h in data set [7] stood at 23.5 ×10⁻⁶ cm/s. For the same molecule, the figures for the remaining at 10 min in data set [10], in data set [18] and in data set [20] were 85.8%, 21% and 73.6%, respectively. In data set [13], the Vd amounted to 9.35 L/kg. Moreover, the clearance in [19] is 30.5 mL/min/kg.

Values taken from ChEMBL document CHEMBL4842390, “Amino-Heterocycle Tetrahydroisoquinoline CXCR4 Antagonists with Improved ADME Profiles via Late-Stage Buchwald Couplings” (ACS Med Chem Lett, 2021).
